Assay [1] relates to ACI to LEW rat cardiac transplant. The class given is in vivo. To be noted: given with CSA. An excerpt:
An ACI-LEW rat cardiac transplant model was used to test the ability of 2-CDA to suppress allograft chronic rejection.
Animals were sacrificed at 90 days post transplant. Heart grafts were subjected to evaluation which included the quantification of the extent to which the following pathologies typically associated with chronic allograft rejection were present in the allograft models: myocardial Infiltration (MI), myocardial fibrosis (MF), and intimal proliferation (IP).
Each of these pathologies is associated with the vascular disease of transplant arteriosclerosis.

Assay [2] deals with allogeneic small bowel transplantation. The settings on record: rats sacrificed ten days after small bowel transplantation; cited from earlier work.
The test system of the next assay is heart allografts. To be noted: cited from earlier work.

On to `Nc1nc(Cl)nc2c1ncn2[C@H]1C[C@H](O)[C@@H](CO)O1` [2-CDA, 2-chlorodeoxyadenosine], for which, in assay [1], the “most effective dose of 2-CDA” value is 1 mg per kilogram of recipient body mass per week. The “graft rejection (histology)” value in assay [2] is on record as “moderate to severe rejection”. In addition, the “effect on allograft rejection” value with heart allografts (2-CDA alone) was “no effect”. Besides, in the assay with heart allografts (rats, 10 days post transplant), the “rejection of heart allografts (histology)” value was “severe rejection”.

(Values after patent publication US7368423B1, “Composition and method for treating chronic allograft rejection” (priority 2001, dated 2008).)
